According to US5597801A, “Biocidal proteins” (priority 1991, dated 1997):
Where no end group is shown, it is not given here.

Legend:
Sarcina lutea ATCC 9342 = experiment: Antibacterial activity assay (microspectrophotometry); type: cell-based; details: S lutea; 24 hours of incubation at 28° C.
B cinerea = experiment: Effect of ions on antifungal activity (synthetic growth medium); type: cell-based, Botrytis cinerea; details: for increase of IC50 values by CaCl2 at 1 mM: reference medium + 1 mM CaCl2; for drop in specific activity at 5 mM CaCl2: reference medium + 5 mM CaCl2; for effect of KCl at 10 mM on the dose-response curves: reference medium + 10 mM KCl; for increase of IC50 values by KCl at 50 mM: reference medium + 50 mM KCl; for IC50 in reference medium: synthetic growth medium, 2.5 mM monovalent and 0.1 mM divalent cations
Phytophthora infestans = type: cell-based
[1] = system: Escherichia coli strain HB101; experiment: Antibacterial activity assay (microspectrophotometry); type: cell-based; details: E coli; for IC50 (antibacterial activity): Table 4, highest test concentration 500 μg/ml; for IC50 (activity on bacteria): Table 5
Fusarium culmorum spores [2] = type: cell-based; details: F culmorum spores; protein 2-4 fold below the IC50 value; light microscope
Description: During the course of screening many different plant species it has become evident that the protein class of the invention is fairly common in plant seeds. […] This is particularly evident when using Fusarium culmorum. The nature of the inhibition may also be characterized by the fact that it is very sensitive to the concentration of cations used in the assay.
This is readily visualised when Fusarium culmorum spores are used in the assay and at concentrations of the proteins which are 2-4 fold below the IC50 value.

[3] = Chitin-binding activity (chitin micro-column, SDS-PAGE of fractions); details: 50 μg on chitin micro-column; washed at pH 7, desorbed with 100 mM acetic acid (pH 2.8)
[4] = system: Bacillus megaterium ATCC 13632; experiment: Antibacterial activity assay (microspectrophotometry); type: cell-based; details: B megaterium; 24 hours of incubation at 28° C.
[5] = system: Erwinia carotovora strain 3912; experiment: as above; type: cell-based; details: E carotovora; highest test concentration 500 μg/ml
[6] = system: Colletotrichum lindemuthianum MUCL 9577; type: cell-based
[7] = system: Verticillium dahliae MUCL 19210; type: cell-based
[8] = system: Ascochyta pisi MUCL 30164; type: cell-based
[9] = system: Cercospora beticola strain K897; type: cell-based
[10] = system: Botrytis cinerea MUCL 30158; type: cell-based
[11] = system: Alternaria brassicola MUCL 20297; type: cell-based
[12] = system: Alternaria longipes strain CBS 620.83; experiment: Antifungal activity assay (growth inhibition, microspectrophotometry); type: cell-based; details: A longipes; medium B (medium A + 1 mM CaCl2, 50 mM KCl); 48 h
[13] = system: Cladosporium sphaerospermum strain KO791; experiment: as above; type: cell-based; details: C sphaerospermum; medium B (medium A + 1 mM CaCl2, 50 mM KCl); 48 h
Fusarium culmorum spores [14] = type: physicochemical; details: for antifungal activity after heat treatment at up to 80° C.: 10 minutes, F culmorum assay; for antifungal activity after reduction of disulphide bonds: reduction by DTE / dithiothreitol
Experimental: Tests for antifungal activity were performed with 20 μl samples diluted five-fold with growth medium containing Fusarium culmorum spores, according to the assay method given in Example 1. Untreated control samples consisted of the test proteins at 500 μg/ml in 10 mM sodium phosphat buffer (pH 7). For digestions, different proteases were added at 100 μg/ml and incubated at 37° C. for 16 hours. Heat stability tests were performed by heating aliquots of the test proteins for 10 minutes at different temperatures up to 100° C. pH stability was tested by incubation of test proteins for 1 hour in either 20 mM glycine-HCl (pH 2) or glycine-NaOH (pH 11) and subsequent dialysis for 16 hours against 10 mM sodium phosphate buffer (pH 7) using benzoylated cellulose tubing. Reduction of dishulphide bridges was done by addition of DTE at 30 mM and Tris-HCl (pH 8.6) at 300 mM. The reagents were removed by reversed-phase chromatography. For digestions, different proteases were added at 200 μg/ml and incubated at 37° C. for 3 hours.

plant pathogenic fungi = type: cell-based

Ac-AMP1: antimicrobial protein from Amaranthus caudatus seeds, 29 residues, dimer of 3 kDa subunits (SEQ ID NO:5) (VGECVRGRCPSGMCCSQFGYCGKGPKYCG; cysteine pairing not given here; also: dimer of subunits)
IC50 (antibacterial activity) (Sarcina lutea ATCC 9342): 250 µg/mL | increase of IC50 values by CaCl2 at 1 mM (B cinerea): five to six-fold | drop in specific activity at 5 mM CaCl2 (B cinerea): more than 50 fold | effect of KCl at 10 mM on the dose-response curves (B cinerea): did not significantly affect | increase of IC50 values by KCl at 50 mM (B cinerea): about three-fold | IC50 in reference medium (B cinerea): 2.2 µg/mL | IC50 (concentration required for 50% growth inhibition) (Phytophthora infestans): 12 | IC50 (antibacterial activity) [1]: no inhibition | morphological change of partially inhibited spores (Fusarium culmorum spores [2]): severe branching of the emerging hyphal tips | affinity toward chitin [3]: exhibit affinity toward chitin | IC50 (antibacterial activity) [4]: 40 µg/mL | IC50 (antibacterial activity) [5]: no inhibition

Ac-AMP2: antimicrobial protein from Amaranthus caudatus seeds, 30 residues, Ac-AMP1 plus carboxyl-terminal arginine (SEQ ID NO:6) (VGECVRGRCPSGMCCSQFGYCGKGPKYCGR)
IC50 (antibacterial activity) (Sarcina lutea ATCC 9342): 40 µg/mL | increase of IC50 values by CaCl2 at 1 mM (B cinerea): five to six-fold | drop in specific activity at 5 mM CaCl2 (B cinerea): more than 50 fold | effect of KCl at 10 mM on the dose-response curves (B cinerea): did not significantly affect | increase of IC50 values by KCl at 50 mM (B cinerea): about three-fold | IC50 in reference medium (B cinerea): 1.6 µg/mL | IC50 (concentration required for 50% growth inhibition) [6]: 8 | IC50 (concentration required for 50% growth inhibition) [7]: 5 | IC50 (antibacterial activity) [1]: no inhibition | affinity toward chitin [3]: exhibit affinity toward chitin | IC50 (concentration required for 50% growth inhibition) [8]: 8 | IC50 (concentration required for 50% growth inhibition) [9]: 0.8 | IC50 (concentration required for 50% growth inhibition) [10]: 8 | IC50 (concentration required for 50% growth inhibition) [11]: 4 | IC50 (antibacterial activity) [5]: no inhibition

Bm-AMP1: antimicrobial protein purified from seeds of Briza maxima; may be a mixture of peptides varying at positions 9 and 23 (SEQ ID NO:16)
IC50 Medium B [12]: > 500 µg/mL | IC50 (activity on bacteria) [1]: > 800 µg/mL | IC50 Medium B [13]: > 500 µg/mL | antifungal activity after heat treatment at up to 80° C. (Fusarium culmorum spores [14]): resistant | antifungal activity after reduction of disulphide bonds (Fusarium culmorum spores [14]): completely abolished | antifungal activity in high salt (medium B) (plant pathogenic fungi): essentially abolished | number of fungi with IC50 value below 10 μg/ml (plant pathogenic fungi): six of the eight

Ca-AMP1: antimicrobial protein purified from seeds of Capsicum annuum (SEQ ID NO:15) (QEQCGNQAGGRACANRLCCSQYGYCGSTRAYCGVGCQSNCGR)
IC50 (activity on bacteria) [1]: > 800 µg/mL | morphological change of partially inhibited spores (Fusarium culmorum spores [2]): severe branching of the emerging hyphal tips | affinity toward chitin [3]: exhibits affinity to chitin | antifungal activity after heat treatment at up to 80° C. (Fusarium culmorum spores [14]): resistant | antifungal activity after treatment with chymotrypsin (Fusarium culmorum spores [14]; chymotrypsin): no affect on activity | reduction of antifungal activity after treatment with pronase E (Fusarium culmorum spores [14]; pronase E): at least 10 fold | reduction of antifungal activity after treatment with proteinase K (Fusarium culmorum spores [14]; proteinase K): at least 10 fold | antifungal activity after reduction of disulphide bonds (Fusarium culmorum spores [14]): completely abolished | reduction of antifungal activity after treatment with trypsin (Fusarium culmorum spores [14]; trypsin): 2 fold | antifungal activity in high salt (medium B) (plant pathogenic fungi): essentially abolished | number of fungi with IC50 value below 50 μg/ml (plant pathogenic fungi): 12 of the 18
